Counter-ions that a name gives are not always drawn.
Legend:
angiotensin II = details: as reported; cited from earlier work
A-II receptor = molecular target: T1, A-II receptor (Bos taurus, UniProt P25104); experiment: Inhibition of binding of angiotensin-II to angiotensin receptor (radioreceptor assay, 125I-A-II); set-up: species or system bovine (membrane fraction of bovine adrenal cortex); details: bovine adrenal cortex membrane, 125I-A-II, 1 h room temperature; for inhibition at 10 µM: read-out: Radioreceptor assay, inhibition of A-II binding, 1 × 10^-5 M; for inhibition at 1 µM: read-out: Radioreceptor assay, inhibition of A-II binding, 1 × 10^-6 M
T1 construct: An A-II receptor was prepared from the membrane fraction of bovine adrenal cortex; from tissue; host or cells: bovine adrenal cortex, membrane fraction
T1 sequence (P25104 1-359): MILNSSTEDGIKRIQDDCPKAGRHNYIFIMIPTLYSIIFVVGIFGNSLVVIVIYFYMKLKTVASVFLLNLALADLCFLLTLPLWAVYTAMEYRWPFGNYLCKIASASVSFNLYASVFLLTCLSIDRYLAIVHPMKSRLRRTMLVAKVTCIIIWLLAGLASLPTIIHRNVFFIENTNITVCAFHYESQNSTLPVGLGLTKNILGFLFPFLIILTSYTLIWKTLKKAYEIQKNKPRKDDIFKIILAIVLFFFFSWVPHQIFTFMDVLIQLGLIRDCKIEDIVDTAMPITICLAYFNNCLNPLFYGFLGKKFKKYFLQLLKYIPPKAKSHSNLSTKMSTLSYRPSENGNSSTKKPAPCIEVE
Description: Inhibition of binding of angiotensin-II to angiotensin receptor
An A-II receptor was prepared from the membrane fraction of bovine adrenal cortex.

pressor action of A-II = experiment: Inhibitory effect on pressor action of A-II (oral drug, i.v. A-II 100 ng/kg); format: in vivo, Jcl:SD rats (9 week old, male); details: rats, A-II 100 ng/kg i.v.; for inhibition in vivo at 3 mg/kg / inhibition in vivo at 30 mg/kg: Rattus norvegicus, po; for inhibition in vivo at 3 mg/kg: read-out: Pressor response to A II (p.o.), 3 mg/kg (percent inhibition); for inhibition in vivo at 30 mg/kg: read-out: Pressor response to A II (p.o.), 30 mg/kg (percent inhibition)
Excerpt: Inhibitory effect of the compound of this invention on pressor action of A-II
Jcl:SD rats (9 week old, male) were used. On the day prior to that of the experiment, these animals were applied with cannulation into the femoral artery and vein under anesthesia with pentobarbital Na. The animals were fasted but allowed free access to drinking water until the experiment was started. On the day of conducting the experiment, the artery cannula was connected with a blood-pressure transducer, and the average blood pressure was recorded by means of polygraph. […] The drugs were orally administered, and then, at each point of the measurement, A-II was administered intravenously, and the pressor action was similarly measured. By comparing the pressor action before and after administration of the drug, the percent inhibition by the drug on A-II-induced pressor action was evaluated.

Row | Compound | inhibition at 10 µM (A-II receptor; 1 × 10^-5 M) [%] | inhibition at 1 µM (A-II receptor; 1 × 10^-6 M) [%] | inhibition in vivo at 3 mg/kg (pressor action of A-II; 3 mg/kg p.o.) [%] | inhibition in vivo at 30 mg/kg (pressor action of A-II; 30 mg/kg p.o.) [%] | also measured
1 | CNCC(=O)N[C@@H](CCCN=C(N)N)C(=O)N[C@H](C(=O)N[C@@H](Cc1ccc(O)cc1)C(=O)N[C@H](C(=O)N[C@@H](Cc1cnc[nH]1)C(=O)N1CCC[C@H]1C(=O)N[C@@H](C)C(=O)O)C(C)C)C(C)C [saralasin] | – | – | – | – | angiotensin II antagonism (angiotensin II): potent angiotensin II antagonism
2 | CCCCc1nc2cccc(C(=O)O)c2n1Cc1ccc(-c2ccccc2-c2nn[nH]n2)cc1 [Working Example 29, 2-Butyl-1-[[2'-(1H-tetrazol-5-yl)biphenyl-4-yl]methyl]benzimidazole-7-carboxylic acid 2.potassium salt] | – | – | – | – | Radioreceptor assay, inhibition of A-II binding, 1 × 10^-5 M (A-II receptor; 1 × 10^-5 M): 87; Radioreceptor assay, inhibition of A-II binding, 1 × 10^-6 M (A-II receptor; 1 × 10^-6 M): 60; Pressor response to A II (p.o.), 3 mg/kg (percent inhibition) (pressor action of A-II; 3 mg/kg p.o.): +++ (+++ ≥70%); Pressor response to A II (p.o.), 30 mg/kg (percent inhibition) (pressor action of A-II; 30 mg/kg p.o.): +++ (+++ ≥70%)
3 | CCCCc1nc2cc(C)cc(C(=O)O)c2n1Cc1ccc(-c2ccccc2-c2nn[nH]n2)cc1 [Working Example 10, 2-Butyl-5-methyl-1-[[2,-(1H-tetrazol-5-yl)biphenyl-4-yl]methyl]benzimidazole-7-carboxylic acid] | 90 | 40 | > 70 | > 70 | –
4 | [Sar^1, Ala^8 ]AII | – | – | – | – | angiotensin II antagonism (angiotensin II): potent angiotensin II antagonism

Continued, in another order:

Row | inhibition at 10 µM (A-II receptor; 1 × 10^-5 M) [%] | inhibition at 1 µM (A-II receptor; 1 × 10^-6 M) [%] | Compound | inhibition in vivo at 3 mg/kg (pressor action of A-II; 3 mg/kg p.o.) [%] | inhibition in vivo at 30 mg/kg (pressor action of A-II; 30 mg/kg p.o.) [%] | also measured
5 | 82 | 50 | CCCCc1nc2cccc(C(=O)OCC)c2n1Cc1ccc(-c2ccccc2-c2nnn[nH]2)cc1 [Working Example 14, Ethyl 2-butyl-1-[[2'-(1H-tetrazol-5-yl)biphenyl-4-yl]methyl]benzimidazole-7-carboxylate] | 50 to 70 | > 70 | –
6 | 96 | 91 | CCc1nc2cccc(C(=O)O)c2n1Cc1ccc(-c2ccccc2-c2nn[nH]n2)cc1 [Working Example 27] | > 70 | > 70 | –
7 | 92 | 45 | CCCCc1nc2cc(C)cc(C(=O)OC)c2n1Cc1ccc(-c2ccccc2-c2nn[nH]n2)cc1 [Working Example 9] | 50 to 70 | – | –
